In patent US7250521B2, “Method for production of Δ1-pyrrolines” (Bayer CropScience Aktiengesellschaft, priority 2001, dated 2007):

Experiment: logP determination by HPLC on reverse-phase column (C 18), EEC directive 79/831 Annex V.A8
Format: physicochemical
Protocol: In the acidic range, the determination is carried out at pH 2.3 using the mobile phases 0.1% aqueous phosphoric acid and acetonitrile; linear gradient from 10% acetonitrile to 90% acetonitrile.
In the neutral range, the determination is carried out at pH 7.5 using the mobile phases 0.01 molar aqueous phosphate buffer solution and acetonitrile; linear gradient from 10% acetonitrile to 90% acetonitrile.

[1] = reverse-phase HPLC column (C 18), pH 2.3, acidic range, pH 2.3; 0.1% aqueous phosphoric acid/acetonitrile gradient; 43° C.; values marked a)
[2] = reverse-phase HPLC column (C 18), pH 7.5, neutral range, pH 7.5; 0.01 molar aqueous phosphate buffer/acetonitrile gradient; 43° C.; values marked b)

chromatographic logP [1] | chromatographic logP [2] | logP (acidic range, pH 2.3; 0.1% aqueous phosphoric acid/acetonitrile gradient; 43° C.; values marked a)) | SMILES
3.24 | – | – | O=C1CCC(c2ccc(-c3ccc(SC(F)(F)F)cc3)cc2)N1 (single isomer, unassigned; isomer 5) [V-2 para isomer, 5-{4′-[(trifluoromethyl)thio]-1,1′-biphenyl-4-yl}-2-pyrrolidinone]
3.52 | 4.86 | – | Cc1ccc(C2CCC(c3ccccc3Cl)=N2)c(Cl)c1 (stereo not shown) [Example 38]
2.09 | 4.51 | – | Cc1cc(Cl)ccc1C1CCC(c2ccccc2F)=N1 (stereo not shown) [Example 39]
1.97 | 3.52 | – | COc1ccc(C2CCC(c3ccccc3Cl)=N2)cc1F (stereo not shown) [Example 40]
– | 4.5 | – | FC(F)(F)Oc1ccc(C2CCC(c3ccccc3Cl)=N2)cc1 (stereo not shown) [Example 41]
1.79 | 3.5 | – | COc1ccc(C2CCC(c3ccccc3Br)=N2)cc1 (stereo not shown) [Example 42]
2.22 | – | – | COc1ccc(C2CCC(c3ccccc3Br)=N2)cc1F (stereo not shown) [Example 43]
2.68 | 4.59 | – | Clc1ccc(C2=NC(c3ccccc3)CC2)cc1Cl (stereo not shown) [Example 44]
3.83 | 4.75 | – | Clc1ccc(C2CCC(c3ccccc3Cl)=N2)cc1Cl (stereo not shown) [Example 45]
4.66 | 5.2 | – | Clc1ccc(C2CCC(c3ccccc3Cl)=N2)c(Cl)c1 (stereo not shown) [Example 46]
3.98 | 4.88 | – | Cc1ccc(C2CCC(c3ccccc3Br)=N2)c(Cl)c1 (stereo not shown) [Example 47]
1.73 | 3.97 | – | Clc1cccc(C2=NC(c3ccccc3)CC2)c1 (stereo not shown) [Example 48]
2.67 | 3.86 | – | Fc1ccc(C2CCC(c3ccccc3Cl)=N2)cc1F (stereo not shown) [Example 49]
2.39 | 4.74 | – | Cc1ccc(C2CCC(c3ccccc3F)=N2)c(Cl)c1 (stereo not shown) [Example 50]
3.79 | 4.36 | – | Fc1ccc(C2CCC(c3cc(Cl)ccc3Cl)=N2)cc1 (stereo not shown) [Example 51]
3.01 | 5.78 | – | CCOc1cc(C(C)(C)C)ccc1C1CCC(c2ccccc2Cl)=N1 (stereo not shown) [Example 52]
– | – | 3.63^a) | FC(F)(F)Oc1ccc(C2CCC(c3ccccc3Br)=N2)cc1 (stereo not shown) [Example 53]
2.98 | 4.67 | – | Cc1ccc(C2CCC(c3ccccc3Cl)=N2)cc1Cl (stereo not shown) [Example 54]
2.19 | 4 | – | CSc1ccc(C2CCC(c3ccccc3Cl)=N2)cc1 (stereo not shown) [Example 55]
3.01 | 3.89 | – | Fc1ccc(C2CCC(c3ccccc3Br)=N2)cc1F (stereo not shown) [Example 56]
3.31 | 5.8 | – | CCOc1cc(C(C)(C)C)ccc1C1CCC(c2ccccc2Br)=N1 (stereo not shown) [Example 57]
2.5 | 4.03 | – | CSc1ccc(C2CCC(c3ccccc3Br)=N2)cc1 (stereo not shown) [Example 58]

chromatographic logP [1] | chromatographic logP [2] | logP (acidic range, pH 2.3; 0.1% aqueous phosphoric acid/acetonitrile gradient; 43° C.; values marked a)) | SMILES
2.88 | – | – | Fc1cccc(F)c1C1=NC(c2ccc(SCc3ccc(Cl)cc3)cc2)CC1 (stereo not shown) [Example 59]
2.9 | 3.96 | – | Fc1ccc(C2CCC(c3ccccc3Cl)=N2)c(F)c1 (stereo not shown) [Example 60]
5.03 | 5.33 | – | Cc1cc(Cl)ccc1C1CCC(c2cc(Cl)ccc2Cl)=N1 (stereo not shown) [Example 61]
3.36 | 4.69 | – | Cc1ccc(C2CCC(c3ccccc3Br)=N2)cc1Cl (stereo not shown) [Example 62]
1.74 | 3.74 | – | Fc1ccc(C2CCC(c3ccccc3F)=N2)cc1F (stereo not shown) [Example 63]
2.73 | 4.2 | – | Fc1ccc(C2CCC(c3ccc(C(F)(F)F)cc3)=N2)cc1 (stereo not shown) [Example 64]
2.23 | 4.31 | – | Fc1ccc(C2CCC(c3ccc(OC(F)(F)F)cc3)=N2)cc1 (stereo not shown) [Example 65]
2.02 | 4.26 | – | FC(F)(F)Oc1ccc(C2=NC(c3ccccc3)CC2)cc1 (stereo not shown) [Example 66]
– | 6.04 | – | Clc1ccccc1C1=NC(c2ccc(C3CCCCC3)cc2)CC1 (stereo not shown) [Example 67]
– | 4.41 | – | Fc1ccccc1C1=NC(c2ccc(OC(F)(F)F)cc2)CC1 (stereo not shown) [Example 68]
– | 4.07 | – | Clc1cccc(C2=NC(c3ccccc3)CC2)c1Cl (stereo not shown) [Example 69]
3.47 | 5.33 | – | Clc1ccccc1C1=NC(c2ccc(CCc3ccccc3)cc2)CC1 (stereo not shown) [Example 70]
2.82 | 4.45 | – | Cc1ccc(C2CCC(c3ccccc3Cl)=N2)c(C)c1 (stereo not shown) [Example 71]
1.59 | 4.06 | – | Brc1ccc(C2=NC(c3ccccc3)CC2)cc1 (stereo not shown) [Example 72]
– | 4.13 | – | Fc1cccc(F)c1C1=NC(c2ccc(OC(F)(F)F)cc2)CC1 (stereo not shown) [Example 73]
1.96 | 4.04 | – | Cc1ccc(C2CCC(c3ccccc3Cl)=N2)cc1 (stereo not shown) [Example 74]
1.88 | 3.06 | – | CC(=O)c1ccc(C2CCC(c3ccccc3Cl)=N2)cc1 (stereo not shown) [Example 75]
1.16 | 3.45 | – | Fc1ccccc1C1=NC(c2ccccc2)CC1 (stereo not shown) [Example 76]
4.23 | 6.03 | – | Brc1ccccc1C1=NC(c2ccc(C3CCCCC3)cc2)CC1 (stereo not shown) [Example 77]
3.84 | 5.56 | – | Fc1cccc(F)c1C1=NC(c2ccc(C3CCCCC3)cc2)CC1 (stereo not shown) [Example 78]
2.86 | 5.95 | – | Fc1ccccc1C1=NC(c2ccc(C3CCCCC3)cc2)CC1 (stereo not shown) [Example 79]

Continued, molecule first:

SMILES | chromatographic logP [1] | chromatographic logP [2] | logP (acidic range, pH 2.3; 0.1% aqueous phosphoric acid/acetonitrile gradient; 43° C.; values marked a))
FC(F)(F)Oc1ccc(C2CCC(c3ccccc3Br)=N2)cc1 (stereo not shown) [Example 1, 5-(2-bromophenyl)-2-[4-(trifluoro-methoxy)phenyl]-3,4-dihydro-2H-pyrrole] | 3.61 | – | –
FC(F)(F)c1ccccc1C1=NC(c2ccc(Br)cc2)CC1 (stereo not shown) [Example 2] | 3.9 | – | –
FC(F)(F)Oc1ccc(-c2ccc(C3CCC(c4ccccc4C(F)(F)F)=N3)cc2)cc1 (stereo not shown) [Example 3] | 5.11 | – | –
Fc1ccccc1C1=NC(c2ccc(-c3ccc(OC(F)(F)F)cc3)cc2)CC1 (stereo not shown) [Example 4] | 3.09 | 5.45 | –
COc1ccccc1C1=NC(c2ccc(-c3ccc(OC(F)(F)F)cc3)cc2)CC1 (stereo not shown) [Example 5] | 2.55 | 5.23 | –
Cc1cccc(C)c1C1=NC(c2ccc(-c3ccc(OC(F)(F)F)cc3)cc2)CC1 (stereo not shown) [Example 6] | 5.7 | – | –
FC(F)(F)Oc1ccc(-c2ccc(C3CCC(c4ccccc4OC(F)(F)F)=N3)cc2)cc1 (stereo not shown) [Example 7] | 4.83 | – | –
FC(F)(F)Oc1ccc(-c2ccc(C3CCC(c4ccc(Cl)cc4Cl)=N3)cc2)cc1 (stereo not shown) [Example 8] | 5.69 | – | –
Fc1cccc(F)c1C1=NC(c2ccc(OCC(F)(F)F)cc2)CC1 (stereo not shown) [Example 9] | 2.41 | – | –
C=CCOc1ccc(C2CCC(c3ccccc3F)=N2)cc1 (stereo not shown) [Example 10] | 1.63 | – | –
Clc1ccccc1C1=NC(c2cccc(Br)c2)CC1 (stereo not shown) [Example 15] | 2.99 | – | –
FC(F)(F)Sc1ccc(-c2ccc(C3CCC(c4ccccc4Cl)=N3)cc2)cc1 (stereo not shown) [Example 16] | 4.67 | 5.94 | –
Fc1ccccc1C1=NC(c2ccc(-c3ccc(SC(F)(F)F)cc3)cc2)CC1 (stereo not shown) [Example 17] | 3.45 | 5.84 | –
Cc1ccccc1C1=NC(c2ccc(-c3ccc(SC(F)(F)F)cc3)cc2)CC1 (stereo not shown) [Example 18] | 3.25 | 6.1 | –
FC(F)(F)Sc1ccc(-c2ccc(C3CCC(c4ccc(Cl)cc4Cl)=N3)cc2)cc1 (stereo not shown) [Example 19] | 6.19 | – | –
CC(C)(C)c1ccc(C2CCC(c3ccccc3Cl)=N2)cc1 (stereo not shown) [Example 20] | 3.05 | – | –

SMILES | chromatographic logP [1] | chromatographic logP [2] | logP (acidic range, pH 2.3; 0.1% aqueous phosphoric acid/acetonitrile gradient; 43° C.; values marked a))
CC(C)c1ccc(C2CCC(c3ccccc3Cl)=N2)cc1 (stereo not shown) [Example 21] | 2.74 | – | –
CC(C)c1ccc(C2CCC(c3ccccc3F)=N2)cc1 (stereo not shown) [Example 22] | 2.09 | – | –
CC(C)c1ccc(C2CCC(c3ccccc3Br)=N2)cc1 (stereo not shown) [Example 23] | 3.06 | – | –
CC(C)(C)c1ccc(C2CCC(c3ccccc3F)=N2)cc1 (stereo not shown) [Example 24] | 2.33 | 5.06 | –
Cc1ccccc1C1=NC(c2ccc(C(C)C)cc2)CC1 (stereo not shown) [Example 25] | 2.11 | 5.01 | –
CC(C)(C)c1ccc(C2CCC(c3ccccc3Br)=N2)cc1 (stereo not shown) [Example 26] | 3.36 | 5.21 | –
Cc1ccccc1C1=NC(c2ccc(C(C)(C)C)cc2)CC1 (stereo not shown) [Example 27] | 2.31 | – | –
Cc1cc(Cl)ccc1C1CCC(c2ccccc2Cl)=N1 (stereo not shown) [Example 28] | 3.18 | 4.62 | –
Cc1cc(Cl)ccc1C1CCC(c2ccccc2Br)=N1 (stereo not shown) [Example 29] | 3.55 | 4.63 | –
Cc1ccccc1C1=NC(c2ccc(Cl)cc2C)CC1 (stereo not shown) [Example 30] | 2.06 | 4.79 | –
Cc1ccccc1C1=NC(c2ccc(F)cc2)CC1 (stereo not shown) [Example 31] | 1.41 | – | –
Fc1ccc(C2CCC(c3ccccc3)=N2)cc1 (stereo not shown) [Example 32] | 1.12 | 3.34 | –
Fc1ccc(C2CCC(c3cccc(Cl)c3)=N2)cc1 (stereo not shown) [Example 33] | 1.98 | 4.05 | –
Fc1ccc(C2CCC(c3ccc(Cl)cc3)=N2)cc1 (stereo not shown) [Example 34] | 1.63 | 3.99 | –
CC(C)Sc1ccc(C2CCC(c3c(F)cccc3F)=N2)cc1 (stereo not shown) [Example 36] | 2.18 | – | –
Fc1ccc(C2CCC(c3c(Cl)cccc3Cl)=N2)cc1 (stereo not shown) [Example 37] | 3.78 | 3.95 | –
